Source: ChEMBL document CHEMBL4765227, “Hit to lead optimization of a series of N-[4-(1,3-benzothiazol-2-yl)phenyl]acetamides as monoacylglycerol lipase inhibitors with potential anticancer activity” (Eur J Med Chem, 2016)

Tests used:
Format in all cases: functional
Conditions in all cases: read-out: GI
[1] = system: CCRF-CEM; assay: Growth inhibition of human CCRF-CEM cells at 10 uM incubated for 48 hrs by sulforhodamine B assay relative to control
[2] = system: HL-60(TB); assay: Growth inhibition of human HL-60(TB) cells at 10 uM incubated for 48 hrs by sulforhodamine B assay relative to control
[3] = system: K562; assay: Growth inhibition of human K562 cells at 10 uM incubated for 48 hrs by sulforhodamine B assay relative to control
[4] = system: MOLT-4; assay: Growth inhibition of human MOLT-4 cells at 10 uM incubated for 48 hrs by sulforhodamine B assay relative to control
[5] = system: RPMI-8226; assay: Growth inhibition of human RPMI-8226 cells at 10 uM incubated for 48 hrs by sulforhodamine B assay relative to control
[6] = system: SR; assay: Growth inhibition of human SR cells at 10 uM incubated for 48 hrs by sulforhodamine B assay relative to control
[7] = system: A549; assay: Growth inhibition of human A549/ATCC cells at 10 uM incubated for 48 hrs by sulforhodamine B assay relative to control
[8] = system: HOP-62; assay: Growth inhibition of human HOP-62 cells at 10 uM incubated for 48 hrs by sulforhodamine B assay relative to control
[9] = system: HOP-92; assay: Growth inhibition of human HOP-92 cells at 10 uM incubated for 48 hrs by sulforhodamine B assay relative to control
[10] = system: NCI-H23; assay: Growth inhibition of human NCI-H23 cells at 10 uM incubated for 48 hrs by sulforhodamine B assay relative to control
[11] = system: NCI-H522; assay: Growth inhibition of human NCI-H522 cells at 10 uM incubated for 48 hrs by sulforhodamine B assay relative to control
[12] = system: HCC 2998; assay: Growth inhibition of human HCC 2998 cells at 10 uM incubated for 48 hrs by sulforhodamine B assay relative to control
[13] = system: HCT-116; assay: Growth inhibition of human HCT-116 cells at 10 uM incubated for 48 hrs by sulforhodamine B assay relative to control
[14] = system: HCT-15; assay: Growth inhibition of human HCT-15 cells at 10 uM incubated for 48 hrs by sulforhodamine B assay relative to control
[15] = system: HT-29; assay: Growth inhibition of human HT-29 cells at 10 uM incubated for 48 hrs by sulforhodamine B assay relative to control
[16] = system: KM12; assay: Growth inhibition of human KM12 cells at 10 uM incubated for 48 hrs by sulforhodamine B assay relative to control
[17] = system: SF-268; assay: Growth inhibition of human SF-268 cells at 10 uM incubated for 48 hrs by sulforhodamine B assay relative to control
[18] = system: SF-295; assay: Growth inhibition of human SF-295 cells at 10 uM incubated for 48 hrs by sulforhodamine B assay relative to control
[19] = system: SF-539; assay: Growth inhibition of human SF-539 cells at 10 uM incubated for 48 hrs by sulforhodamine B assay relative to control
[20] = system: SNB-19; assay: Growth inhibition of human SNB-19 cells at 10 uM incubated for 48 hrs by sulforhodamine B assay relative to control
[21] = system: SNB-75; assay: Growth inhibition of human SNB-75 cells at 10 uM incubated for 48 hrs by sulforhodamine B assay relative to control
[22] = system: U-251; assay: Growth inhibition of human U-251 cells at 10 uM incubated for 48 hrs by sulforhodamine B assay relative to control
[23] = system: LOX IMVI; assay: Growth inhibition of human LOX IMVI cells at 10 uM incubated for 48 hrs by sulforhodamine B assay relative to control
[24] = system: M14; assay: Growth inhibition of human M14 cells at 10 uM incubated for 48 hrs by sulforhodamine B assay relative to control
[25] = system: MDA-MB-435; assay: Growth inhibition of human MDA-MB-435 cells at 10 uM incubated for 48 hrs by sulforhodamine B assay relative to control
[26] = system: SK-MEL-28; assay: Growth inhibition of human SK-MEL-28 cells at 10 uM incubated for 48 hrs by sulforhodamine B assay relative to control
[27] = system: SK-MEL-5; assay: Growth inhibition of human SK-MEL-5 cells at 10 uM incubated for 48 hrs by sulforhodamine B assay relative to control
[28] = system: UACC-257; assay: Growth inhibition of human UACC-257 cells at 10 uM incubated for 48 hrs by sulforhodamine B assay relative to control
[29] = system: UACC-62; assay: Growth inhibition of human UACC-62 cells at 10 uM incubated for 48 hrs by sulforhodamine B assay relative to control
[30] = system: OVCAR-4; assay: Growth inhibition of human OVCAR-4 cells at 10 uM incubated for 48 hrs by sulforhodamine B assay relative to control
[31] = system: OVCAR-8; assay: Growth inhibition of human OVCAR-8 cells at 10 uM incubated for 48 hrs by sulforhodamine B assay relative to control
[32] = system: SK-OV-3; assay: Growth inhibition of human SK-OV-3 cells at 10 uM incubated for 48 hrs by sulforhodamine B assay relative to control
[33] = system: ACHN; assay: Growth inhibition of human ACHN cells at 10 uM incubated for 48 hrs by sulforhodamine B assay relative to control
[34] = system: RXF 393; assay: Growth inhibition of human RXF 393 cells at 10 uM incubated for 48 hrs by sulforhodamine B assay relative to control
[35] = system: SN12C; assay: Growth inhibition of human SN12C cells at 10 uM incubated for 48 hrs by sulforhodamine B assay relative to control
[36] = system: TK-10; assay: Growth inhibition of human TK-10 cells at 10 uM incubated for 48 hrs by sulforhodamine B assay relative to control
[37] = system: UO-31; assay: Growth inhibition of human UO-31 cells at 10 uM incubated for 48 hrs by sulforhodamine B assay relative to control
[38] = system: PC-3; assay: Growth inhibition of human PC-3 cells at 10 uM incubated for 48 hrs by sulforhodamine B assay relative to control
[39] = system: DU-145; assay: Growth inhibition of human DU-145 cells at 10 uM incubated for 48 hrs by sulforhodamine B assay relative to control
[40] = system: MCF7; assay: Growth inhibition of human MCF7 cells at 10 uM incubated for 48 hrs by sulforhodamine B assay relative to control
[41] = system: MDA-MB-231; assay: Growth inhibition of human MDA-MB-231 cells at 10 uM incubated for 48 hrs by sulforhodamine B assay relative to control
[42] = system: BT-549; assay: Growth inhibition of human BT-549 cells at 10 uM incubated for 48 hrs by sulforhodamine B assay relative to control
[43] = system: T47D; assay: Growth inhibition of human T47D cells at 10 uM incubated for 48 hrs by sulforhodamine B assay relative to control
[44] = system: MDA-MB-468; assay: Growth inhibition of human MDA-MB-468 cells at 10 uM incubated for 48 hrs by sulforhodamine B assay relative to control

In the case of `O=C(CNc1c(Cl)cccc1Cl)Nc1ccc(-c2nc3ccccc3s2)cc1`, the inhibition of growth at 10 µM [1] is reported as 97.8%, the inhibition of growth at 10 µM [2] is reported as 29.3% and the inhibition of growth at 10 µM [3] is reported as 89.5%. For the same compound, the inhibition of growth at 10 µM [4] was 94.4%, the inhibition of growth at 10 µM [5] was 40.2% and the inhibition of growth at 10 µM [6] was 89.3%. The inhibition of growth at 10 µM [7] was 14.3%, the inhibition of growth at 10 µM [8] was -18.3% and the inhibition of growth at 10 µM [9] was 5.78%. For the same compound, the inhibition of growth at 10 µM [10] was 59.1%, the inhibition of growth at 10 µM [11] was 193% and the inhibition of growth at 10 µM [12] was 64.4%. It also gave an inhibition of growth at 10 µM [13] of 70.1%, an inhibition of growth at 10 µM [14] of 97.6% and an inhibition of growth at 10 µM [15] of 30.2%. The inhibition of growth at 10 µM [16] was 8.67%, the inhibition of growth at 10 µM [17] was 53.8% and the inhibition of growth at 10 µM [18] was 2.62%. It also gave an inhibition of growth at 10 µM [19] of 20.1%, an inhibition of growth at 10 µM [20] of 26.1% and an inhibition of growth at 10 µM [21] of 40.8%. For the same compound, the inhibition of growth at 10 µM [22] was 72.3%, the inhibition of growth at 10 µM [23] was 149% and the inhibition of growth at 10 µM [24] was 44.3%. It also gave an inhibition of growth at 10 µM [25] of 32.1%, an inhibition of growth at 10 µM [26] of -3.93% and an inhibition of growth at 10 µM [27] of 78.8%. The inhibition of growth at 10 µM [28] was 3.54%, the inhibition of growth at 10 µM [29] was 64.9% and the inhibition of growth at 10 µM [30] was 82.5%. The inhibition of growth at 10 µM [31] was 33.3%, the inhibition of growth at 10 µM [32] was 2.25% and the inhibition of growth at 10 µM [33] was 57.7%. It also gave an inhibition of growth at 10 µM [34] of 13.4%, an inhibition of growth at 10 µM [35] of 52% and an inhibition of growth at 10 µM [36] of -6.12%. The inhibition of growth at 10 µM [37] was 26.3%, the inhibition of growth at 10 µM [38] was 14.1% and the inhibition of growth at 10 µM [39] was 14.3%. It also gave an inhibition of growth at 10 µM [40] of 85.4%, an inhibition of growth at 10 µM [41] of 43.1% and an inhibition of growth at 10 µM [42] of 78%. The inhibition of growth at 10 µM [43] was 119% and the inhibition of growth at 10 µM [44] was 107%.

`O=C(CNc1ccc(Cl)cc1)Nc1ccc(-c2nc3ccccc3s2)cc1` was tested, and the inhibition of growth at 10 µM [1] was 96.8%, the inhibition of growth at 10 µM [2] was 29% and the inhibition of growth at 10 µM [3] was 88.1%. The inhibition of growth at 10 µM [4] was 95.6%, the inhibition of growth at 10 µM [5] was 54% and the inhibition of growth at 10 µM [6] was 88.5%. It also gave an inhibition of growth at 10 µM [7] of 11%, an inhibition of growth at 10 µM [8] of -16.2% and an inhibition of growth at 10 µM [9] of 2.16%. It also gave an inhibition of growth at 10 µM [10] of 60.9%, an inhibition of growth at 10 µM [11] of 194% and an inhibition of growth at 10 µM [12] of 116%. It also gave an inhibition of growth at 10 µM [13] of 76.7%, an inhibition of growth at 10 µM [14] of 114% and an inhibition of growth at 10 µM [15] of 52.1%. It also gave an inhibition of growth at 10 µM [16] of 19.3%, an inhibition of growth at 10 µM [17] of 75.9% and an inhibition of growth at 10 µM [18] of 5.37%. The inhibition of growth at 10 µM [19] was 21.9%, the inhibition of growth at 10 µM [20] was 36.4% and the inhibition of growth at 10 µM [21] was 39.9%. The inhibition of growth at 10 µM [22] was 73.7%, the inhibition of growth at 10 µM [23] was 141% and the inhibition of growth at 10 µM [24] was 55.8%. It also gave an inhibition of growth at 10 µM [25] of 37.2%, an inhibition of growth at 10 µM [26] of 0.54% and an inhibition of growth at 10 µM [27] of 75%. The inhibition of growth at 10 µM [28] was 9.09%, the inhibition of growth at 10 µM [29] was 69.9% and the inhibition of growth at 10 µM [30] was 76.9%. The inhibition of growth at 10 µM [31] was 33.6%, the inhibition of growth at 10 µM [32] was 10.2% and the inhibition of growth at 10 µM [33] was 77.2%. It also gave an inhibition of growth at 10 µM [34] of 15.8%, an inhibition of growth at 10 µM [35] of 53.2% and an inhibition of growth at 10 µM [36] of -18.4%. For the same compound, the inhibition of growth at 10 µM [37] was 35%, the inhibition of growth at 10 µM [38] was 14.7% and the inhibition of growth at 10 µM [39] was 29.8%. The inhibition of growth at 10 µM [40] was 88.5%, the inhibition of growth at 10 µM [41] was 62.4% and the inhibition of growth at 10 µM [42] was 83.3%. For the same compound, the inhibition of growth at 10 µM [43] was 95.4% and the inhibition of growth at 10 µM [44] was 111%.
